# Reference: patent publication US9212146B2, “Substituted pyridazinones for the treatment of tumors” (SHANGHAI INSTITUTE OF MATERIA MEDICA, CHINESE ACADEMY OF …, priority 2008, dated 2015)
# Read-outs that look alike come from different tables or passages of the source.
# Assays:
# [1] = system: human liver cancer cells Bel-7402 transplanted tumor; type: in vivo; conditions: 60 mg/kg, PO, QDx16
# Text: Name and lot number: YHHU-744, a white powder, lot No.: No. c001471-106; YHHU-755, a white powder, lot No.: No. c001471-102; YHHU-756, a white powder, lot No.: No. c00147-106; YHHU-759, a white powder, lot No.: No. c001471-102; YHHU-776, a white powder, lot No.: No. c001471-107. Sorafenib was used as a positive control.
# Formulation: YHHU-744, YHHU-755, YHHU-756, YHHU-759, YHHU-776 and the positive control were each diluted with 0.1% Tween-80 and distilled water to a desired concentration.
# BALB/cA nude mice, 6-7 weeks old, ♀, were purchased from Shanghai SLAC Laboratory Animal Co. LTD. Certificate No.: SCXK (Shanghai) 2007-0005. Habitat: SPF level.
# Human liver cancer cells Bel-7402 were inoculated on nude mice subcutaneously. After the tumor grew up to 300-450 mm^3, animals were grouped randomly (d0). The tumor volume was measured 2-3 times each week and the weights of mice were recorded. The tumor volume was calculated according to as the following equation. V=½×a×b^2 wherein, a and b are length and width, respectively. […]
# [2] = system: human hepatoma cell line Bel-7402; test: SRB proliferation assay, Bel-7402; type: cell-based; conditions: Homo sapiens, Bel-7402, 72 h
# Method: (§1) Protocol: the antineoplasmic activities in vitro of the compounds were assayed by a Sulforhodamine B (SRB) protocol. Tumor cells were cultivated at 37 under 5% CO2 in a RPMI 1640 medium or a DMEM medium (Gibco) containing 10% fetal bovine serum. Tumor cells were inoculated on a 96-well plate with a concentration of 0.4-1.0×10^4 cells per well according to the cell types. 24 hours later, the target compounds diluted 10 times were added, each compound having at least 5 concentrations. After treated by the compounds for 72 hours, the culture media were discarded, and the cells were fixed by 10% cold trichloroacetic acid, and then stained by Sulforhodamine B (SRB) solution. The uncombined SRB was washed off, and the SRB combined with protein was dissolved with Tris. OD values were recorded at 515 nm on an ELISA Reader, and the cell growth inhibition rate was calculated according to following equation: Inhibition rate=(ODcontrol−ODexperimental)/ODcontrol×100%
# IC50 (50% inhibitory concentration) was calculated by using Logit method based on the inhibition rates at various concentration, and the results are shown in tables 1 and 2.
# The following cell lines were used: human hepatocarcinoma cell line […]; ovarian cancer cell line SK-OV-3; human breast cancer cell line MDA-MB-231; human renal carcinoma cell line A498; colon adenocarcinoma cell line HT-29; non-small cell lung cancer cell line NCI-H460; lung adenocarcinoma cell line A549; human colon cancer cell line SW-620; human hepatoma cell line Bel-7402; human breast carcinoma cell line SK-BR-3; and human umbilical vein endothelial cells (HUVEC).
# [3] = system: human hepatocarcinoma cell line SIMM-7721; test: SRB proliferation assay, SIMM-7721; type: cell-based; conditions: SIMM-7721, liver cancer, 72 hours
# Method: as §1
# (§2) IC50 (50% inhibitory concentration) was calculated by using Logit method based on the inhibition rates at various concentration, and the results are shown in tables 1 and 2. […]
# [4] = system: human umbilical vein endothelial cells (HUVEC); test: SRB proliferation assay, HUVEC; type: cell-based; conditions: human umbilical vein endothelial cells (normal cells), 72 hours
# Method: as §1, §2
# [5] = system: liver cancer of animals; test: Curative effect against liver cancer of animals in vivo
# [6] = system: non-small cell lung cancer cell line NCI-H460; test: SRB proliferation assay, NCI-H460; type: cell-based; conditions: Homo sapiens, 72 hours
# Method: as §1, §2
# [7] = system: colon adenocarcinoma cell line HT-29; test: SRB proliferation assay, HT-29; type: cell-based; conditions: Homo sapiens, HT-29, colon carcinoma, 72 hours
# Method: as §1, §2
# [8] = system: human breast cancer cell line MDA-MB-231; test: SRB proliferation assay, MDA-MB-231; type: cell-based; conditions: MDA-MB-231, breast carcinoma, 72 hours
# Method: as §1, §2
# [9] = system: human renal carcinoma cell line A498; test: SRB proliferation assay, A498; type: cell-based; conditions: 72 hours
# Method: as §1, §2
# [10] = system: ovarian cancer cell line SK-OV-3; test: SRB proliferation assay, SK-OV-3; type: cell-based; conditions: Homo sapiens, 72 hours
# Method: as §1, §2
# [11] = system: human breast carcinoma cell line SK-BR-3; test: SRB proliferation assay, SK-BR-3; type: cell-based; conditions: SK-BR-3, breast carcinoma, 72 hours
# Method: as §1, §2
# [12] = system: human colon cancer cell line SW-620; test: SRB proliferation assay, SW-620; type: cell-based; conditions: SW-620, colon carcinoma, 72 hours
# Method: as §1, §2
"IC50 ([2]; BEL-7402 cultivated in vitro, given as bounds, read-out: The Inhibition Activities for Human Liver Cancer Cells BEL-7402 (IC50)) [µM]","IC50 ([2]; Bel-7402, liver cancer, Table 1, read-out: IC50) [µM]",IC50 [3] [µM],IC50 [6] [µM],IC50 [7] [µM],IC50 [8] [µM],IC50 [9] [µM],IC50 [10] [µM],IC50 [11] [µM],IC50 [12] [µM],SMILES,Quantity of Animals Whose Tumors Vanished ([1]; 5 animals per group),Inhibition Rate (%) ([1]; Bel-7402 on nude mice),Tumor Volume (mm^3) ([1]; Bel-7402 on nude mice),IC50 [4] [µM],curative effect against liver cancer of animals in vivo [5]
–,–,–,–,–,–,–,–,–,–,"CNC(=O)c1cc(Oc2ccc(NC(=O)Nc3ccc(Cl)c(C(F)(F)F)c3)cc2)ccn1 [Sorafenib, reference compound]",0,50,279.8,–,–
< 0.01,0.0007,< 0.1,24.1,6.3,> 20,4.12,0.003,7.5,5.8,O=c1ccc(-c2ccc(N3CCCC3)c(C(F)(F)F)c2)n[nH]1 [YHHU-646],–,–,–,0.03,significant curative effect
